Data as given in ChEMBL document CHEMBL1201862, “PubChem BioAssay data set” (2004).
Calls of active or inactive are those of the source.

Key:
[1] = test system: HeLa; assay: ATP-based viability loss in HeLa cells – cell-based, CellTiter-Glo luminescence, cherry-pick samples, cytotoxicity control for MITF activator project, dose response (AID 540259); type: functional; settings: Homo sapiens
[2] = target: Melanocortin receptor 4 (Homo sapiens, UniProt P32245); assay: inhibitors of MC4R cAMP signaling – cell-based, TR-FRET, biased antagonists, dose response (AID 602298); type: functional;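 note: antagonist potency against agonist-stimulated cAMP production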
[3] = cAMP pathway inhibition in counterscreen cell line – TR-FRET cAMP detection, counter-screen for MC4R biased antagonist project, dose response (AID 602305); type: functional, cell-based;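 note: U2OS cells stimulated with forskolin near its EC80 as the cAMP inducer; potency is for inhibition of forskolin-stimulated cAMP signaling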
[4] = target: Beta-galactosidase (Escherichia coli, UniProt Q8VNN2); assay: PubChem AID 485352; type: functional
[5] = target: T1, Type-1 angiotensin II receptor (Homo sapiens, UniProt P30556); assay: antagonism of angiotensin II type 1 receptor – cell-based, uHTS hits, selectivity assay for APJ receptor antagonist project, dose response (AID 463214); type: functional;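 note: antagonist potency against angiotensin II stimulated AT1 response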
T1 sequence (P30556 whole entry): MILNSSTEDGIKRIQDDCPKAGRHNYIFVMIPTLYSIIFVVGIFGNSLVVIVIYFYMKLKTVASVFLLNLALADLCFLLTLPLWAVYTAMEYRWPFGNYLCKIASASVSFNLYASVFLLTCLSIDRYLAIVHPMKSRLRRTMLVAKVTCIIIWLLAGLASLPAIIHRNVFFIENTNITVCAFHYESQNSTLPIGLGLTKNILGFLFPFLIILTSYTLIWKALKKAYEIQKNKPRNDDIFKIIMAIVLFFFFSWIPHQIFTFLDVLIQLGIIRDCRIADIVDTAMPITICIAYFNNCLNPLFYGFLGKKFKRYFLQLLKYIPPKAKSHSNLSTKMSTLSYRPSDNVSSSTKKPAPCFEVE

[6] = target: Cytochrome P450 3A4 (Homo sapiens, UniProt P08684);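 note: CYP3A4 tested as one member of a cytochrome P450 panel screen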
[7] = test system: HEK293; assay: inhibition of NOD1-driven NF-kB reporter – cell-based, luminescence, uHTS, primary screen (AID 1578); type: functional; settings: Homo sapiens
[8] = test system: HEK293; assay: cells; type: functional, cell-based; settings: Homo sapiens
[9] = test system: HEK293; assay: cells; type: functional, cell-based; settings: Homo sapiens; remark: listed apart in the source
[10] = test system: HEK293; assay: NOD2 signaling inhibitors in MDP-stimulated cells, cell-based, uHTS, luminescence (AID 2001); type: functional; settings: Homo sapiens
[11] = target: Tumor necrosis factor (Homo sapiens, UniProt P01375); assay: analog potency on TNFa NF-kB signaling – cell-based, revised, SAR follow-up (AID 2337); type: functional
[12] = target: T2, Nucleotide-binding oligomerization domain-containing protein 1 (Homo sapiens, UniProt Q9Y239); assay: blockers of NOD1 pathway activity – revised, SAR follow-up (AID 2333); type: functional
T2 sequence (Q9Y239 whole entry): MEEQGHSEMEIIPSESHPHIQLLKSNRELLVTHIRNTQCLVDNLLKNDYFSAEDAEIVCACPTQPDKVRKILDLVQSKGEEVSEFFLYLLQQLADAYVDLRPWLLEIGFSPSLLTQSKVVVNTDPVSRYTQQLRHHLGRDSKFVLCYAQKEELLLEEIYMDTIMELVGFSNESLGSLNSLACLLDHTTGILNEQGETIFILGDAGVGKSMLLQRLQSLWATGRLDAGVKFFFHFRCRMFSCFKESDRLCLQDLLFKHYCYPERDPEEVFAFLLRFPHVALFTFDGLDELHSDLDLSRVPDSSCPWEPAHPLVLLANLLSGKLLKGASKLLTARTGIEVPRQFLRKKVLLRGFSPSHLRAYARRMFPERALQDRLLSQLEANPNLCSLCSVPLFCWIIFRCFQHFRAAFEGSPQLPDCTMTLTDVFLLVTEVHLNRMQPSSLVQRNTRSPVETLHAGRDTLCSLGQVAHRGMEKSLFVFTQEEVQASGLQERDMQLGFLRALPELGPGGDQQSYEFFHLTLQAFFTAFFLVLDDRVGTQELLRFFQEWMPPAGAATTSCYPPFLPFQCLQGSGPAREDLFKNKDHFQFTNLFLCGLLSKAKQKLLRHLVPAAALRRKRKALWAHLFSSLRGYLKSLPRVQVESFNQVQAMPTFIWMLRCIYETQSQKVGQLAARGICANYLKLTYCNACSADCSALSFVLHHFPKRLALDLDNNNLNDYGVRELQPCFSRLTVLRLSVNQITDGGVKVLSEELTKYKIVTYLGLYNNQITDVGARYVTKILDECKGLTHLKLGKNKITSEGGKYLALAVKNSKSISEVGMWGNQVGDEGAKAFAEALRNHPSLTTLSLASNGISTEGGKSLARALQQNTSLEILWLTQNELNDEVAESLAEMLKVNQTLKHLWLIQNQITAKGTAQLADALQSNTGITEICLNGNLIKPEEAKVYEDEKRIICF

[13] = reduction of Shn3 3'UTR-driven luciferase in osteoblasts – cell-based, Clone20 osteoblasts, firefly luciferase, cherry-picked, dose response (AID 624132); type: functional;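 note: firefly luciferase luminescence from reporter carrying the Shn3 3'UTR in osteoblasts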
[14] = loss of viability in HepG2 cells – cell-based, CellTiter-Glo, cherry-picked, cytotoxicity control for Shn3 inhibitor project, dose response (AID 624134); type: functional
[15] = non-specific 3'UTR reporter inhibition in Clone20-Shn3RL – cell-based, Renilla luciferase, cherry-picked, counter-screen for Shn3 inhibitor project, dose response (AID 624133); type: functional
[16] = test system: HEK293; assay: cells; settings: Homo sapiens
[17] = target: T3, Insulin-degrading enzyme (Homo sapiens, UniProt P14735); assay: recombinant IDE activation, cell-free – biochemical, fluorescence polarization, counter-screen for IDE activator project, dose response (AID 588681)
T3 sequence (P14735 whole entry): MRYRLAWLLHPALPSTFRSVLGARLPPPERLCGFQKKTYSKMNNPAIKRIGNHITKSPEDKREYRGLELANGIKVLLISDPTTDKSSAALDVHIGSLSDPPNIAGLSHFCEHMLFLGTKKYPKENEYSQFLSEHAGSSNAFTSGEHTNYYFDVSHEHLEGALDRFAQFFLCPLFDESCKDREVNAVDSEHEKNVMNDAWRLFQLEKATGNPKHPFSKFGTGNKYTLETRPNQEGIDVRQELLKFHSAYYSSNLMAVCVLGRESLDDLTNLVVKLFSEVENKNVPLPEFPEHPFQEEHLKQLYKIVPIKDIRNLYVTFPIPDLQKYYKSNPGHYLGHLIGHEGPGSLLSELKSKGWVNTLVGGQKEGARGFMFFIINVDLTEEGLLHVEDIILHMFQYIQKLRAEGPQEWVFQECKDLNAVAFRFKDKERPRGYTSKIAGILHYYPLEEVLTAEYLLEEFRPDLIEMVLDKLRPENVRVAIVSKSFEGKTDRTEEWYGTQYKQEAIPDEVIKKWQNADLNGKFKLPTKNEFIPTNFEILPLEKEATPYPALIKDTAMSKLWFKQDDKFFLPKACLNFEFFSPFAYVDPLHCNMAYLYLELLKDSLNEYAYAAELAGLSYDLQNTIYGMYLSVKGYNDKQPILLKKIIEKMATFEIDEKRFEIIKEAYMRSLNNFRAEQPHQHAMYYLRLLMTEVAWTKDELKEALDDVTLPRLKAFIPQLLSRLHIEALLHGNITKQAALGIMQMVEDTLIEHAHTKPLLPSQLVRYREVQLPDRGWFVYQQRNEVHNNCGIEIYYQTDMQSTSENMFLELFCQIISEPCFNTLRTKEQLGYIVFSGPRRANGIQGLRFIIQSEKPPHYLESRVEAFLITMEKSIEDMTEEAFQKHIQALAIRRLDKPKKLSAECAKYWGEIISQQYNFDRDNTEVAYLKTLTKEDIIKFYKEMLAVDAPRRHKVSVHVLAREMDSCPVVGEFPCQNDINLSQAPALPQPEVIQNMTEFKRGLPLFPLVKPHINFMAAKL

[18] = target: T3, Insulin-degrading enzyme; assay: cellular IDE activation of Abeta substrate cleavage – fluorescence polarization, HEK cells, dose response (AID 588439); type: functional, cell-based
[19] = test system: HEK293; assay: membrane integrity loss in HEK cells – cell-based, fluorescence, cytotoxicity control for IDE activator project, dose response (AID 588440); type: functional; settings: Homo sapiens;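 note: cytotoxicity by LDH release measuring loss of membrane integrity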
[20] = test system: HEK293; assay: optical interference in Abeta FP readout, dose response, artefact control for IDE activator project, biochemical, fluorescence polarization (AID 588442); type: functional, cell-based; settings: Homo sapiens

Sequence of Tumor necrosis factor (P01375 whole entry, the tested form may be a part): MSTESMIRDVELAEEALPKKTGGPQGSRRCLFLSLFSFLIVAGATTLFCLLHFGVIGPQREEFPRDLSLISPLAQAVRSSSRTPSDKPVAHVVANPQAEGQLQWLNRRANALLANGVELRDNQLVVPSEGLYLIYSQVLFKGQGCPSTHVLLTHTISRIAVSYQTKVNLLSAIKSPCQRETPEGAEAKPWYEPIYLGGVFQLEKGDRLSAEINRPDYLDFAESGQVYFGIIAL
Sequence of Melanocortin receptor 4 (P32245 whole entry): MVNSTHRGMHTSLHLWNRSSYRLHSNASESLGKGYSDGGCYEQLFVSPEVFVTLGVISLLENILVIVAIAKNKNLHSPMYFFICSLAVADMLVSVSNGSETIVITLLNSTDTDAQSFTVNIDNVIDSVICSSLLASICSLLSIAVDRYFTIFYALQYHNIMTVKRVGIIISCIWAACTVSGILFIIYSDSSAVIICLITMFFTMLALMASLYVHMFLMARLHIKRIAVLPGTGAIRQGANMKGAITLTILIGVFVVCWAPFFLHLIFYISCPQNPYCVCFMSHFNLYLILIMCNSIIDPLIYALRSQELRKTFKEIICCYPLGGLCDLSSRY
Sequence of Beta-galactosidase (Q8VNN2 whole entry): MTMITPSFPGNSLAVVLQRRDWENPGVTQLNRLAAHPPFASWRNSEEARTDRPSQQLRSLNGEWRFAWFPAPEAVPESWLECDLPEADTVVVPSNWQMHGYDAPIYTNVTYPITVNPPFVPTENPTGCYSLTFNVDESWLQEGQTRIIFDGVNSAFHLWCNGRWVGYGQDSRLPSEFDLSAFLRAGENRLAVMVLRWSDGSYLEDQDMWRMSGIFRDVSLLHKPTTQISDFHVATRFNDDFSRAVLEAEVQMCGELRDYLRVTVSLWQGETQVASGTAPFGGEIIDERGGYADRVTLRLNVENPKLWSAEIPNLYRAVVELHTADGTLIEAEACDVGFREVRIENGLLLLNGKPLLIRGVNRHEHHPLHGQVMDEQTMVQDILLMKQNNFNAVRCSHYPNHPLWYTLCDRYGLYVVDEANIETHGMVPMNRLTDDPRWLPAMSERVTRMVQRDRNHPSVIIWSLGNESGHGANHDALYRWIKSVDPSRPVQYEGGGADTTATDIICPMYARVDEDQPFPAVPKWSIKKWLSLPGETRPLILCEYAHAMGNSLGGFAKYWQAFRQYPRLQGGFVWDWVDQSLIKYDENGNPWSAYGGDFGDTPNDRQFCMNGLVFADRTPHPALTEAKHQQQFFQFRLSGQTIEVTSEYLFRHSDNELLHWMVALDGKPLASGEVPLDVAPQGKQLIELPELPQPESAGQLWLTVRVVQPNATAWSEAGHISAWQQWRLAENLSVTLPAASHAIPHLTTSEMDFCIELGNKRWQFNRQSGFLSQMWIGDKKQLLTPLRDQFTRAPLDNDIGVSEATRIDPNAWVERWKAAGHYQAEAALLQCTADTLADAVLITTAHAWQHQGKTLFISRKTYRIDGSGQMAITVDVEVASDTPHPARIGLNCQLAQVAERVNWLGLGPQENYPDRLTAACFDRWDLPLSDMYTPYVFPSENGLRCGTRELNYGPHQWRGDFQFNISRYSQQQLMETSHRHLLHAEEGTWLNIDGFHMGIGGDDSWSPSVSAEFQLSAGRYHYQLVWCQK
Sequence of Cytochrome P450 3A4 (P08684 whole entry): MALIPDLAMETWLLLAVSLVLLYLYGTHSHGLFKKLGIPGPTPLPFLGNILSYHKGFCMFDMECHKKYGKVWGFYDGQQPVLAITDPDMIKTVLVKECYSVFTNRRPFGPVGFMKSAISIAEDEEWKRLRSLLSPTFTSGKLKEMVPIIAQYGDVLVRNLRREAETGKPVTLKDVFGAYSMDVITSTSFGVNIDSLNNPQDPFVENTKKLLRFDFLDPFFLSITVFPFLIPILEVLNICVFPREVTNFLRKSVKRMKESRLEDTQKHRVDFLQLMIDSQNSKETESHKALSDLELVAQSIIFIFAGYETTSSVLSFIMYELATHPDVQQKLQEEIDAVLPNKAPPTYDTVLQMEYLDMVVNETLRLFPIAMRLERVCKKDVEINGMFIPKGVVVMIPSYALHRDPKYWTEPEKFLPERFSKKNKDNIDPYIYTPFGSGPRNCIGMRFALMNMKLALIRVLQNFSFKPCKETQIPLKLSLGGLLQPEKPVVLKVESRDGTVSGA

In the case of `CC/C(=N\NC(=O)c1csc(C)c1C)c1cccs1`, the AC50 [1] is reported as > 350 µM (inactive).

For `Cc1sc2nc(CN3CCOCC3)nc(Cl)c2c1C`, the IC50 [2] was > 64.5 µM (inactive) and the IC50 [3] was > 64.5 µM (inactive).

For `Cc1ccc(OCCN2C(=O)c3ccccc3C2=O)c([N+](=O)[O-])c1`, the EC50 [4] was > 40 µM (inactive) and the IC50 [5] was 9.04 µM (active).

With `O=C(c1cnccn1)N1CCC2(CC1)CCN(c1ncccn1)CC2` the AC50 [6] was “inconclusive”.

In the case of `COCC1CCN(C(=O)c2cc(COc3ccc4ncccc4c3)on2)CC1`, the EC50 [7] is reported as 2.31 µM (active), the IC50 [8] is reported as 8.36 µM (active) and the IC50 [9] is reported as > 20 µM (inactive). The IC50 [10] was 14.8 µM (inactive), the IC50 [11] was 4.81 µM (active) and the IC50 [12] was 3.13 µM (active). The AC50 [13] was 2.7 µM (active), the AC50 [14] was 42.1 µM (active) and the AC50 [15] was 10.5 µM (active). For the same compound, the IC50 [16] was > 20 µM (inactive).

In the case of `O=C(Nc1cc(S(=O)(=O)N2CCOCC2)ccc1N1CCOCC1)c1ccccc1F`, the EC50 [17] is reported as > 54.7 µM (inactive), the EC50 [18] is reported as > 54.7 µM (inactive) and the IC50 [19] is reported as > 89.2 µM (inactive). For the same compound, the EC50 [20] was > 54.7 µM (inactive).
